Assay results: EP3153515A1, “COMPOUNDS FOR INHIBITING HEPATITIS C VIRUS, PHARMACEUTICAL COMPOSITIONS AND USES THEREOF” (priority 2014, dated 2015)
Where two headings read alike, the source gives them in different places.

Tested on: HCV NS5A replicon GT-1a
Assay: HCV NS5A replicon anti-viral activity (EC50), dual-reporter Renilla luciferase, GT-1a
Type: cell-based
Settings: for EC50: Hepatitis C virus
Description: The autonomous replication level of HCV in liver cells in vitro is very low, and the only animal that can be infected by HCV is chimpanzee, therefore there is no appropriate animal model currently available for preclinical pharmacodynamic study. Some researchers have transplanted human liver tissue infected with HCV in vitro into immune deficient mice to establish an in vivo mice model, but these mice are hard to raise and the model is unstable and short of normal immunologic reaction. Moreover, the model has significant difference with the pathogenic process of hepatitis C, therefore, it has not been used for animal model to assess the action of anti-HCV medicine yet. The progress of the development of anti-viral drugs for the treatment of HCV infection had been very slow because the pathogenic mechanism and life cycle of HCV were unclear before 1999 due to the lack of cell culture system for effective multiplication of HCV. But researchers managed to achieve a breakthrough in 1999 after numerous attempts. An effective cell culture model-replicon system in which HCV is capable of autonomous replication in transfected human hepatic carcinoma cell line Huh-7 had been established in that year on the basis of subgenomic HCV RNA built with genetic engineering.
The above-mentioned cell culture model-replicon system which has been widely accepted in the industry is used in this invention for ex vivo experiments and subsequent assessment of drugs based on the experiment results.
The therapeutic effect of the compounds of this invention on HCV infection can be preliminarily assessed through the following preclinical in vitro inhibitory action test and can be further confirmed in clinical trials. Other methods used in the invention are also quite familiar to professionals in this field with ordinary technical knowledge. Method for testing the anti-viral activity(EC50) in HCV NS5A replicon system: • The viral replication level in infected cells was determined by testing Renilla luciferase with the newly established dual-reporter gene replicon system. There was a good linear relation between the expression level of the reporter gene and the HCV RNA replication level and viral protein expression level. The anti-viral activity was determined for 3 replicates in 3 replicate cells at five(5) 1:2 diluted concentration gradients, with 1 to 2 positive controls. The EC50 of the compounds was calculated in the end.
The compounds of the invention, or their stereoisomers, tautomers, esterified or amidated prodrugs, or pharmaceutically acceptable salts and mixtures have been subjected to test to determined their therapeutic effects in the treatment of HCV infection. […] Moreover, the results of 6a-6ep(Ia), 6fa-6gq(Ib) and reference compounds Ref-1(BMS-790052), Ref-2(GS5885), Ref-3 in HCV-NS5 inhibition test reveal that the cyclopentanyl/hexamethyleneamino radical containing linear polypeptide compounds 6a-6ep, 6fa-6gq and reference compounds Ref-1, Ref-2, Ref-3 have good HCV inhibitory results. […] The replicons GT-1a, GT-lb, GT-2a, GT-3a, GT-4a, GT-5a and GT-6a used for the test are routine replicons commercially available in this field. Table 1: HCV NS5A replicon inhibitory activity test results of compounds (6a-6gq) of the invention

[1] = GT1A, GT-1a replicon, read-out: NS5A Inhibitory Activity (EC50 of GT-1a subtype inhibition)

| Structure (SMILES) | EC50 [1] [nM] | EC50 (genotype 1a / genotype 6a, read-out: Inhibitory activity against various HCV-NS5A subtypes(EC50, GT-1a to GT-6a) GT-1a) [nM] | inhibitory activity compared with Ref-1(BMS-790052), Ref-2(GS5885), Ref-3 and Ref-4 (in words) (comparison drawn from Table 2) |
| --- | --- | --- | --- |
| CNC(=O)N[C@H](C(=O)N1CC=C[C@H]1c1ncc(-c2ccc(-c3ccc(-c4cnc([C@@H]5CCCN5C(=O)[C@@H](NC(=O)OC)C(C)C)[nH]4)cc3)cc2)[nH]1)C(C)C [6cj] | 0.001 to 0.999 | – | – |
| COC(=O)N[C@H](C(=O)N1CCC[C@H]1c1nc2ccc(-c3csc4c(-c5ccc(-c6cnc([C@@H]7C=CCN7C(=O)[C@H](NC(=O)OC)c7ccc(C)cc7)[nH]6)cc5)csc34)cc2[nH]1)C(C)C [6fw] | 0.001 to 0.999 | – | – |
| COC(=O)N[C@H](C(=O)N1CCC[C@H]1c1nc(-c2csc3c(-c4ccc(-c5cnc([C@@H]6C=CCN6C(=O)[C@H](NC(=O)OC)c6ccccc6)[nH]5)cc4)csc23)c[nH]1)C(C)C [6fk] | 0.001 to 0.999 | – | – |
| COC(=O)N[C@H](C(=O)N1CCC[C@H]1c1ncc(-c2ccc(-c3ccc(-c4cnc([C@@H]5CNCN5C(=O)[C@@H](NC(=O)OC)C(C)C)[nH]4)cc3)cc2)[nH]1)C(C)C [6cu] | 0.001 to 0.999 | – | – |
| COC(=O)NC(C(=O)N1CC=C[C@H]1c1nc(-c2ccc(-c3cc4sc(-c5c[nH]c([C@@H]6CCCN6C(=O)C(NC(=O)OC)c6ccccc6)n5)cc4s3)cc2)c[nH]1)c1ccccc1 (stereo partly shown) [6cc] | > 50 | – | – |
| CNC(=O)N[C@@H](C(=O)N1CCC[C@H]1c1ncc(-c2ccc(-c3ccc(-c4cnc([C@@H]5C=CCN5C(=O)[C@@H](NC(=O)OC)C(C)C)[nH]4)cc3)cc2)[nH]1)c1ccccc1 [6dg] | 0.001 to 0.999 | – | – |
| COC(=O)N[C@H](C(=O)N1CCC[C@H]1c1ncc(-c2ccc(-c3csc4c(-c5ccc6nc([C@@H]7C=CCN7C(=O)[C@H](NC(=O)OC)c7ccccc7)[nH]c6c5)csc34)cc2)[nH]1)C(C)C [6ga] | 0.001 to 0.999 | – | – |
| COC(=O)NC(C(=O)N1CC=C[C@H]1c1ncc(-c2ccc(-c3cc4sc(-c5cnc([C@@H]6CCCN6C(=O)[C@@H](NC(=O)OC)C(C)C)[nH]5)cc4s3)cc2)[nH]1)c1ccccc1 (stereo partly shown) [6cb] | > 50 | – | – |
| COC(=O)N[C@H](C(=O)N1CC=C[C@H]1c1ncc(-c2ccc(-c3csc4c(-c5ccc6nc([C@@H]7CCCN7C(=O)[C@@H](NC(=O)OC)C(C)C)[nH]c6c5)csc34)cc2)[nH]1)C(C)C [6gd] | – | 0.004 | significantly superior |
| COC(=O)N[C@H](C(=O)N1CCC[C@H]1c1ncc(-c2ccc(-c3cc4sc(-c5cnc([C@@H]6CN(C(=O)N7Cc8cc9c(cc8C7)OCO9)CN6C(=O)[C@@H](NC(=O)OC)C(C)C)[nH]5)cc4s3)cc2)[nH]1)C(C)C [6bv] | 0.001 to 0.999 | – | – |
| COC(=O)N[C@@H](C(=O)N1CC=C[C@H]1c1nc2ccc(-c3csc4c(-c5cnc([C@@H]6CCCN6C(=O)[C@H](NC(=O)OC)c6ccccc6)[nH]5)csc34)cc2[nH]1)c1ccccc1 [6gk] | 0.001 to 0.999 | – | – |
| COC(=O)N[C@H](C(=O)N1CC=C[C@H]1c1nc2ccc(-c3csc4c(-c5cnc([C@@H]6CCCN6C(=O)[C@@H](NC(=O)OC)C(C)C)[nH]5)csc34)cc2[nH]1)C(C)C [6gm] | 0.001 to 0.999 | – | – |
